Data taken from paper PMC5234788 (PLoS ONE, 2017).
Several values for one entry are separate records, joined by “and”; a condition that tells them apart may be missing. Equal values may be shown once.

Columns and labels:
[1] = system: Glutamate, AMPA Site (Ionotropic); test: Radio-ligand binding assay, Glutamate AMPA site; conditions: 10 μM l-THBr; radioligand [3H]AMPA
Protocol: (§1) To determine the possible targets of l-THBr action, the binding affinities of l-THBr to neurotransmitter receptors known to be involved in sedation, hypnosis and anxiety were investigated. Radio-ligand binding assays were performed by Caliper Lifescience (Hopkinton, MA, USA). The screening was carried out at a concentration of 10 μM l–THBr to test its ability to inhibit the binding of radioligands to their corresponding receptors. The results were expressed as percentage of inhibition of labeled ligand binding to individual receptors. Significant binding activity was defined as ≥50%.

Serotonin, 5HT5A (h) = system: T1, Serotonin, 5HT5A (h); test: Radio-ligand binding assay, Serotonin 5HT5A; design: species or system human; conditions: 10 μM l-THBr; radioligand [3H]-LSD
T1 construct: Caliper Lifescience
Protocol: as §1

[2] = biological target: T2, human D2 dopamine receptor (Homo sapiens, UniProt P14416); test: biochemical; format: biochemical
T2 construct: host or cells: HEK293
T2 sequence (P14416 whole entry): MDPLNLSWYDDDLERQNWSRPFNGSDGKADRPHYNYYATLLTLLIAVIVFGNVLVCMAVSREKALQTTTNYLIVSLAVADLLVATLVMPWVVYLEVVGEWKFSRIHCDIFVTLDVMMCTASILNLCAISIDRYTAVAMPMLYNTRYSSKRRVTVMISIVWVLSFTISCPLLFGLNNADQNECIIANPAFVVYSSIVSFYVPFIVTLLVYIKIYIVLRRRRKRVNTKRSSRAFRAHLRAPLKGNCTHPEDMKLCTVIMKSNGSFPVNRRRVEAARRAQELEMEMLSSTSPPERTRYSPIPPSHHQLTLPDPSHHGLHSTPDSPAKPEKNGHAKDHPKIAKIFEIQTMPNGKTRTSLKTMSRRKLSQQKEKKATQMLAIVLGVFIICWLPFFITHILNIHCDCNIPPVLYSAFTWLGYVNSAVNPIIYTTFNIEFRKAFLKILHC
Description: (§2) D2-D4 dopamine receptors and 5-HT1A serotonin receptors are Gαi-coupled receptors that mediate inhibitory neurotransmission. We conducted [^35S]GTPγS assays to determine the agonist or antagonist properties of l-THBr at D2 dopamine receptors or 5-HT1A serotonin receptors. HEK293 cells stably expressing D2 receptors were provided by the Beijing Institute of Pharmacology and Toxicology (Beijing, China). The membrane preparation of D2-expressing HEK293 cells and rat hippocampal tissues highly expressing 5-HT1A receptors were prepared as previously described. Briefly, 10 SD rats were anesthetized and decapitated, and the hippocampi were quickly dissected and stored at -80°C until use. D2 receptor-expressing HEK293 cells and the hippocampal tissue were each homogenized at 4°C in 50 mM Tris-HCl buffer (pH 7.4). The homogenates were centrifuged at 2500 × g for 6 min, and the supernatant was further centrifuged for 20 min at 40000 × g. Membranes were re-suspended in Tris-HCl buffer and stored at -80°C until use.
(§3) [^35S]GTPγS assays were performed in a total volume of 0.5 ml at 4°C. […] Bound radioactivity was determined by liquid scintillation counting. Drug effects were expressed as drug-induced increase in binding over basal binding (binding in the absence of drugs). […] The inhibitory effect of l–THBr was determined by a similar equation to obtain the IC50 values.

male CD-1 ICR mice = test: Elevated plus-maze test; format: in vivo
Description: The elevated plus-maze test is widely used for the screening and evaluation of anxiolytic drugs. The apparatus consists of two open arms (30 cm × 5 cm) and two enclosed arms (30 cm × 5 cm × 15 cm), which is elevated 45 cm above the ground. The entire maze was made of clear Plexiglas and illuminated by four 30 W white lights with 300 lx light intensity arranged as a cross 100 cm above the maze. 48 male CD-1 ICR mice were randomly divided into either the vehicle group, one of three doses of l–THBr groups, or the diazepam group. 30 min after injection, mice were gently placed on the center platform facing an open arm, and the number of entries and the time spent in both arms were recorded by a video camera for 5 min. The results were expressed as the percentage of entries into the open arms (%) = (the number of entries into the open arms / the total number of entries into the four arms) × 100%; and the percentage of time spent in the open arms (%) = (time spent in the open arms / total time spent in the four arms) × 100%.
In a separate experiment, WAY100635 (a 5-HT1A antagonist) was used to test whether the anxiolytic-like activity of l-THBr is mediated by the activation of the 5-HT1A receptor. Forty male CD-1 ICR mice were randomly divided into one of four groups: vehicle, WAY100635 (3 mg/kg, i.p.), l–THBr (5 mg/kg, i.p.) or WAY100635 (3 mg/kg, i.p.) + l–THBr (5 mg/kg, i.p.). Mice were administered vehicle or WAY100635 followed by vehicle or l–THBr (5 mg/kg) injections 15 min later. The test was performed 30 min after the administration of l-THBr or vehicle.

[3] = system: Glutamate, NMDA Agonist Site (Ionotropic); test: Radio-ligand binding assay, Glutamate NMDA agonist site; conditions: 10 μM l-THBr; radioligand [3H]CGP 39653
Protocol: as §1

Serotonin, 5HT2C = system: T3, Serotonin, 5HT2C; test: Radio-ligand binding assay, Serotonin 5HT2C; conditions: 10 μM l-THBr; radioligand [3H]Mesulergine
T3 construct: Caliper Lifescience
Protocol: as §1

[4] = system: Glutamate, Kainate Site (Ionotropic); test: Radio-ligand binding assay, Glutamate Kainate site; conditions: 10 μM l-THBr; radioligand [3H]Kainic acid
Protocol: as §1

GABA A, Agonist Site = test: Radio-ligand binding assay, GABA A agonist site; conditions: 10 μM l-THBr; radioligand [3H]GABA
Protocol: as §1

Dopamine Transporter = system: T4, Dopamine Transporter; test: Radio-ligand binding assay, Dopamine Transporter; conditions: 10 μM l-THBr; radioligand [3H]WIN 35,428
T4 construct: Caliper Lifescience
Protocol: as §1

Dopamine, D2s (h) = system: T5, Dopamine, D2s (h); test: Radio-ligand binding assay, Dopamine D2s; design: species or system human; conditions: 10 μM l-THBr
T5 construct: Caliper Lifescience
Protocol: as §1

[5] = biological target: T6, 5-HT1A receptors in rat hippocampus (Rattus norvegicus, UniProt P19327); test: [35S]GTPγS assay for 5-HT1A receptor activity in rat hippocampus; format: biochemical; conditions: rat hippocampus membranes; read-out: EC50, increase in [35S]GTPγS binding
T6 construct: rat hippocampal tissues highly expressing 5-HT1A receptors were prepared as previously described; from tissue; host or cells: SD rat hippocampus membranes
T6 sequence (P19327 whole entry): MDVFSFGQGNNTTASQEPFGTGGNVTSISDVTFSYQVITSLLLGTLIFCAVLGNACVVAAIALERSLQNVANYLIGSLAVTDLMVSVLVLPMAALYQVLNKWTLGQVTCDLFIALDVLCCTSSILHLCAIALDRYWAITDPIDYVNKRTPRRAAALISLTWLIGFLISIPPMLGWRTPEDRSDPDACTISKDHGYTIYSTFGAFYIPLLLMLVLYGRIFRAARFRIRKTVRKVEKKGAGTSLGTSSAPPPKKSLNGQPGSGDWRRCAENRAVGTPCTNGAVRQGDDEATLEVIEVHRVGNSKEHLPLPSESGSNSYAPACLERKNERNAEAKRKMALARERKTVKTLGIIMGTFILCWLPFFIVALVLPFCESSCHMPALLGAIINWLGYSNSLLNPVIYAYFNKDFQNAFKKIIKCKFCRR
Description: as §2, §3

Serotonin Transporter = system: T7, Serotonin Transporter; test: Radio-ligand binding assay, Serotonin Transporter; conditions: 10 μM l-THBr; radioligand [3H]Citalopram,N-Methyl
T7 construct: Caliper Lifescience
Protocol: as §1

Dopamine, D3 = system: T8, Dopamine, D3; test: Radio-ligand binding assay, Dopamine D3; conditions: 10 μM l-THBr
T8 construct: Caliper Lifescience
Protocol: as §1

[6] = system: Glutamate, NMDA, Phencyclidine Site (Ionotropic); test: Radio-ligand binding assay, Glutamate NMDA phencyclidine site; conditions: 10 μM l-THBr; radioligand [3H]TCP
Protocol: as §1

Dopamine, D1 (h) = system: T9, Dopamine, D1 (h); test: Radio-ligand binding assay, Dopamine D1; design: species or system human; conditions: 10 μM l-THBr
T9 construct: Caliper Lifescience
Protocol: as §1

[7] = l-THBr 1 or 5 mg/kg, i.p., P < 0.05 vs control

COc1ccc2c(c1O)CN1CCc3cc4c(cc3[C@@H]1C2)OCO4 [l-THBr, levo-tetrahydroberberrubine]
Average inhibition percentage [1]: 0.31% | Average inhibition percentage (Serotonin, 5HT5A (h)): 23.79% | IC50 [2]: 5.26 nM | dose-dependent increase in [35S]GTPγS binding (agonist effect) [2]: but not l-THBr induced a dose-dependent increase | anxiolytic-like effects (open arm entries and time) on co-administration of 5-HT1A antagonist WAY100635 (male CD-1 ICR mice; l-THBr 5 mg/kg i.p. + WAY100635 3 mg/kg i.p. given 15 min earlier): significantly reversed | ratio of entries into the open arms (male CD-1 ICR mice; [7]): increased | ratio of time spent in the open arms (male CD-1 ICR mice; [7]): increased | Average inhibition percentage [3]: 4.79% | Average inhibition percentage (Serotonin, 5HT2C): 30.65% | Average inhibition percentage [4]: -0.89% | Average inhibition percentage (GABA A, Agonist Site): 7.89% | Average inhibition percentage (Dopamine Transporter): 8.8% | Activity (Dopamine, D2s (h)): Yes (Significant binding affinity of l-THBr was defined as greater than 50% inhibition of ligand binding) | Average inhibition percentage (Dopamine, D2s (h); radioligand [3H]-Raclopride): 98.41% and 96.43% | EC50 [5]: 235 nM | Average inhibition percentage (Serotonin Transporter): 34.43% | Activity (Dopamine, D3): Yes (Significant binding affinity of l-THBr was defined as greater than 50% inhibition of ligand binding) | Average inhibition percentage (Dopamine, D3; radioligand [3H]7-OH-DAPT): 77.61% | Average inhibition percentage [6]: -12.74% | Activity (Dopamine, D1 (h)): Yes (Significant binding affinity of l-THBr was defined as greater than 50% inhibition of ligand binding) | Average inhibition percentage (Dopamine, D1 (h); radioligand [3H]-SCH23390): 100.6% and 100.61%
